Source: article PMC10251509, “Ultrafast Fragment Screening Using Photo-Hyperpolarized (CIDNP) NMR” (Journal of the American Chemical Society, 2023)

Molecular target: T1, PIN1 (Homo sapiens, UniProt Q13526)
T1 construct: polyhistidine (N); made in house; host or cells: Escherichia coli BL21 (DE3)
Experiment: saturation transfer difference (STD) NMR, PIN1
Type: binding
Parameters: key to STD: The observation of ligand signals in the STD NMR spectra detects a protein–ligand interaction; (+); the absence of a signal fails to detect protein–ligand interaction (−)
Conditions: 200 μM ligand with 20 μM protein
Protocol: For comparison, the signal decay during a T1ρ NMR experiment was measured at the same sample conditions as the photo-CIDNP experiments (Table 2). The signal decay between two T1ρ relaxation delays of 10 and 400 ms is measured in the absence and presence of the PIN1 protein. The increase in signal decay is calculated as the ratio of the integral’s ratio, i.e., (Γ400ms/Γ10ms)PL/(Γ400ms/Γ10ms)L. The most affine binders, compounds 1 and 13, show a significant reduction of the T1ρ decay ratio upon PIN1 addition, witnessing an increase in the relaxation decay. […] The signal-to-noise of the T1ρ spectra were ca. 300 for a number of transients of 512, corresponding to a measurement time of 25 min, while the photo-CIDNP experiments provided a signal-to-noise of ca. 100 for a single-scan experiment corresponding to a two second’s experiment. […] The signal-to-noise of the STD NMR experiments[1] was only 25 and 19 for compounds 1 and 13, respectively, after 50 min measurement corresponding to a 512 transient’s experiment.
For the control binding experiments using ligand-induced chemical shift perturbation analysis, standard [^15N, ^1H]-HSQC spectra were measured. The detailed conditions for the 2D experiments acquired at 600 MHz ^1H NMR frequency were the 100 μM ^15N-labeled PDZ2 domain in the absence and presence of equimolar peptide in PDZ2 buffer and at a temperature of 298 K and 50 μM ^15N-labeled PIN1 in the absence and presence of 200 μM ligands in PIN1 buffer and at a temperature of 298 K, respectively. Typically, 220 (t1,max (^15N) = 47.6 ms) × 1024 (t2,max (^1H) = 60.8 ms) complex points, an interscan delay of 0.8 s, and 12 scans per increment were measured. The data was zero–filled to 2048 points in the direct proton dimension and to 256 points in the ^15N–dimension. Processing was done with a shifted cosine window function for both dimensions. […] The spinlock times were set at 10 and 400 ms. The STD experiments were measured at 298 K with 16,384 (tmax (^1H) = 974 ms) complex points and 512 scans per increment. The on-resonance saturation pulse was set at 0 ppm, and the off-resonance saturation pulse was set to 40 ppm with a saturation time of 1 s.

T1 sequence (Q13526 whole entry): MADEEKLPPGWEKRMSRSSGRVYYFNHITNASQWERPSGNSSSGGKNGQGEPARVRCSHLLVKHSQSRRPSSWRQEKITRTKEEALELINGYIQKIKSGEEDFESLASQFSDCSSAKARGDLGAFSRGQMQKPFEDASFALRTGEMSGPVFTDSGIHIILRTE

STD: + | STD NMR observation (512 transients): shows a signal
SMILES: Cc1cccc(-c2nc(C)c(C(=O)O)[nH]2)c1 [Compound 13, reference compound]
